Type in all cases: cell-based, human
The test system of test [1] is iPSC^USP48MV organoids. Put plainly: ACTH secretion ELISA of conditioned media. As to conditions: 500 nM. As to the method:
(§1) Concentration of secreted ACTH in conditioned media that was collected from organoid cultures was measured using the Human ACTH ELISA Kit (Novus Biologicals, NBP2-66401) according to the manufacturer's protocol. The enzyme-substrate reaction was measured spectrophotometrically (BioTek Gen5 Micro Plate Reader Version 3.11) at a wavelength of 450 nm and the ACTH concentration (pg/mL) was interpolated using a standard curve with a 4-parameter logistic regression analysis using GraphPad Prism (Version 9.2.0).
In general terms: ELISA stands for enzyme-linked immunosorbent assay.

Test [2] concerns iPSC^ctrl organoids. Put plainly: ACTH secretion ELISA of conditioned media. The settings on record: 500 nM. As to the method:
as §1

Test [3] has as its system hPITO39. Briefly: Nuclear Morphometric Analysis (NII). The settings on record: compared to pasireotide and ketoconazole. As to the method: Nuclear Morphometric Analysis (NMA) using treated organoids was performed based on a published protocol that measures cell viability based on the changes in nuclear morphology of the cells using nuclear stain Hoechst or DAPI [30]. Images of organoid nuclei were analyzed using the ImageJ Nuclear Irregularity Index (NII) plugin for key parameters that included cell area, radius ratio, area box, aspect, and roundness. Using the published spreadsheet template, the NII of each cell was calculated with the following formula: NII=Aspect−Area Box+Radius Ratio+Roundness. The area vs NII of vehicle-treated cells were plotted as a scatter plot using the template and considered as the normal cell nuclei. The same plots were generated for each condition, and the NII and area of treated cells were compared to the normal nuclei, and classified as one of the following NMA populations: Normal (N; similar area and NII), Mitotic (S; similar area, slightly higher NII), Irregular (I; similar area, high NII), Small Regular (SR; apoptotic, low area and NII), Senescent (LR; high area, low NII), Small Irregular (SI; low area, high NII), or Large Irregular (LI; high area, high NII). […] The percentage of cells in each NII classification category were calculated and plotted as a histogram using GraphPad Prism. […]

Test [4] relates to iPSC^USP48MV organoids. Put plainly: Spectral flow cytometry (SSTR2, SSTR5, ACTH, zombie). As to conditions: Rela 500 nM, Mife 500 nM. As to the method:
(§2) The multicolor flow cytometry panel was designed using the Cytek®Full Spectrum Viewer online tool to calculate the similarity index. The organoids were harvested in cold SFDM media and centrifuged at 400×g for 5 minutes. Supernatant was discarded and organoids were dissociated to single cells using Accutase® (Thermo Fisher Scientific 00-4555-56). The enzymatic reaction was stopped using prewarmed DPBS and cells were then centrifuged at 400×g for 5 minutes and incubated with fluorochrome-conjugated/unconjugated primary surface or cytoplasmic antibodies at 4° C. for 30 minutes. Cells were then washed with Cell Staining Buffer (BioLegend #420-201) and incubated with secondary antibodies at 4° C. for 30 minutes. Cells were fixed using Cytofix/Cytoperm™ Fixation/Permeabilization Solution (BD Biosciences #554714) at 4° C. for 20 minutes, followed by washing with Fixation/Permeabilization wash buffer. Cells were then labeled with fluorochrome-conjugated/unconjugated intracellular primary antibodies at 4° C. for 30 minutes, washed and incubated with secondary antibodies at 4° C. for 30 minutes. Cells resuspended in cell staining buffer and fluorescence measured using the Cytek Aurora 5 Laser Spectral Flow Cytometer. An unstained cell sample was fixed and used as reference control. UltraComp eBeads™, Compensation Beads (Thermo Fisher Scientific #01-2222-42) were stained with the individual antibodies and used as single stain control for compensation and gating. Data was acquired using the Cytek™ Aurora and analyzed using Cytobank software (Beckman Coulter, Indianapolis, IN).

Test [5] has as its system hPITO37. The test is described as above. As to conditions: Mife 2.85 nM. As to the method:
as §2

With `CC#C[C@]1(O)CC[C@H]2[C@@H]3CCC4=CC(=O)CCC4=C3[C@@H](c3ccc(N(C)C)cc3)C[C@@]21C` [Mifepristone], the “magnitude of ACTH secretion induced” value in test [1] and in test [2] was “significantly greater than the effect of relacorilant” throughout. Also, the “Apoptosis by nuclear morphometric analysis” value in test [3] is listed as “induced significant apoptosis”. In addition, the ACTH positive cells result in test [4] (Pas 100 nM) is “significant induction”. For the same compound, the “cell death (Zombie positive cells)” value in test [4] (Pas 100 nM) is recorded as “not observed”; in test [5] (Pas 837.5 nM, Rela 382 nM), “not observed”. The “percentage of SSTR2 positive cells” value in test [4] (vs Veh) is recorded as “significant increase”; in test [5] (Rela 382 nM, vs Veh), “significant increase”. Moreover, the “percentage of SSTR5 positive cells” value in test [4] (vs Veh) is reported as “significant increase”; in test [5] (Rela 382 nM, vs Veh) it was “significant increase”. Also, in test [5], the “number of ACTH expressing cells” value is “significantly increased”.

The record behind these values is US20250163387A1, “HUMAN PITUITARY NEUROENDOCRINE TUMOR ORGANOIDS AND METHODS OF MAKING AND USING THE SAME” (ARIZONA BOARD OF REGENTS OF THE UNIVERSITY OF ARIZONA, A …, priority 2022, published 2025).
